These results are taken from patent publication US8921376B2, “Pyrrolopyridines useful as inhibitors of protein kinase” (Vertex Pharmaceuticals Incorporated, priority 2005, dated 2014).

Common to all, as to type: biochemical
The target in one assay is JAK2 (Homo sapiens, UniProt O60674). Kind of assay: JAK2 inhibition assay (as Example 3 with JAK-2 enzyme). Summed up: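 Radiometric JAK2 kinase assay: poly(Glu)4Tyr substrate at final 15 μM, ATP at final 12 μM with [33P]; buffer 100 mM HEPES pH 7.4, 1 mM DTT, 10 mM MgCl2, 25 mM NaCl, 0.01% BSA. 20 min at 25 °C, TCA-stopped, 33P incorporation counted after filter capture.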

The next assay concerns the target T1, JAK3 (Homo sapiens, UniProt P52333).
T1 sequence (P52333 1-1124): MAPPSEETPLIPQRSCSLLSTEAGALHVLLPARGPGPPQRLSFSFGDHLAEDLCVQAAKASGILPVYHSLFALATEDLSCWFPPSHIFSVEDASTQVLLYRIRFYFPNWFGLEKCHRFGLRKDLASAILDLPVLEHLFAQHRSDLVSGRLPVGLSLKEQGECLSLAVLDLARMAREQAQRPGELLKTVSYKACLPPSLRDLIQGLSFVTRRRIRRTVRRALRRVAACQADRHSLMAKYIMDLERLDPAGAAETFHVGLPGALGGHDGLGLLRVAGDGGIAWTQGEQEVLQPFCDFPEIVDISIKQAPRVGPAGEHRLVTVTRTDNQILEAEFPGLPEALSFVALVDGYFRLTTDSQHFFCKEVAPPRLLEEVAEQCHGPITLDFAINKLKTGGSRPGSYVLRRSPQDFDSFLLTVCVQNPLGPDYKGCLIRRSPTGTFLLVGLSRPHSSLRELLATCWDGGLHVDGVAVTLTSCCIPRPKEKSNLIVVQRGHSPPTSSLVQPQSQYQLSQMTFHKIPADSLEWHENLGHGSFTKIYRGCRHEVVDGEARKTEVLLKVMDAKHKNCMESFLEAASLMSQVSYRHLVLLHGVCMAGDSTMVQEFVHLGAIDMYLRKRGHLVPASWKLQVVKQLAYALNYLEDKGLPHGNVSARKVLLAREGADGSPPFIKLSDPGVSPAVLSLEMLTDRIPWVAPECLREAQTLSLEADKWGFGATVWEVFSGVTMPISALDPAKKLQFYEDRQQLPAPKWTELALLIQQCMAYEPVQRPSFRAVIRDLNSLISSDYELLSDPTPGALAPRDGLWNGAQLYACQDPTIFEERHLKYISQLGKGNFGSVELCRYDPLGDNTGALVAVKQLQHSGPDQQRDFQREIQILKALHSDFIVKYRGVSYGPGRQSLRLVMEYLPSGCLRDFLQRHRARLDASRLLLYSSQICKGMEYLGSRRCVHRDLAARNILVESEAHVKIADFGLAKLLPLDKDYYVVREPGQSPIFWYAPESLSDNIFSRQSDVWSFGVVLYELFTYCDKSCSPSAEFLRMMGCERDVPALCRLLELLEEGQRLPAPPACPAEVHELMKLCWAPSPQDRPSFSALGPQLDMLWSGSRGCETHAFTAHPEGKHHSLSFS
Kind of assay: JAK3 inhibition assay (33P incorporation into poly(Glu)4Tyr). In outline:
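Human JAK3 at 1 nM phosphorylated 1 μM poly(Glu)4Tyr using 5 μM [33P]ATP in HEPES pH 7.4 buffer with MgCl2, DTT and BSA. Reactions ran 20 min at 25° C. and were stopped with TCA. 33P incorporation was measured by scintillation after glass-fiber filter capture.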

Another assay has as its target ROCK I (Homo sapiens, UniProt Q13464). Kind of assay: ROCK-I inhibition assay (radioactive enzyme assay, MBP substrate). In outline: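 Human ROCK at 5 nM phosphorylated 27 μM myelin basic protein with 13 μM [γ-33P]ATP (final) in HEPES pH 7.5, MgCl2, NaCl, DTT and 1.5% DMSO. Reactions ran 2 h at room temperature before TCA quench and filter-plate scintillation counting. After background subtraction, data were fit to give Ki(app).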

Setting [1] is: Table 6, enzyme inhibition data (Ki).
Setting [2] is: enzyme inhibition, Ki(app), Table 5.

Sequence of ROCK I (Q13464 whole entry): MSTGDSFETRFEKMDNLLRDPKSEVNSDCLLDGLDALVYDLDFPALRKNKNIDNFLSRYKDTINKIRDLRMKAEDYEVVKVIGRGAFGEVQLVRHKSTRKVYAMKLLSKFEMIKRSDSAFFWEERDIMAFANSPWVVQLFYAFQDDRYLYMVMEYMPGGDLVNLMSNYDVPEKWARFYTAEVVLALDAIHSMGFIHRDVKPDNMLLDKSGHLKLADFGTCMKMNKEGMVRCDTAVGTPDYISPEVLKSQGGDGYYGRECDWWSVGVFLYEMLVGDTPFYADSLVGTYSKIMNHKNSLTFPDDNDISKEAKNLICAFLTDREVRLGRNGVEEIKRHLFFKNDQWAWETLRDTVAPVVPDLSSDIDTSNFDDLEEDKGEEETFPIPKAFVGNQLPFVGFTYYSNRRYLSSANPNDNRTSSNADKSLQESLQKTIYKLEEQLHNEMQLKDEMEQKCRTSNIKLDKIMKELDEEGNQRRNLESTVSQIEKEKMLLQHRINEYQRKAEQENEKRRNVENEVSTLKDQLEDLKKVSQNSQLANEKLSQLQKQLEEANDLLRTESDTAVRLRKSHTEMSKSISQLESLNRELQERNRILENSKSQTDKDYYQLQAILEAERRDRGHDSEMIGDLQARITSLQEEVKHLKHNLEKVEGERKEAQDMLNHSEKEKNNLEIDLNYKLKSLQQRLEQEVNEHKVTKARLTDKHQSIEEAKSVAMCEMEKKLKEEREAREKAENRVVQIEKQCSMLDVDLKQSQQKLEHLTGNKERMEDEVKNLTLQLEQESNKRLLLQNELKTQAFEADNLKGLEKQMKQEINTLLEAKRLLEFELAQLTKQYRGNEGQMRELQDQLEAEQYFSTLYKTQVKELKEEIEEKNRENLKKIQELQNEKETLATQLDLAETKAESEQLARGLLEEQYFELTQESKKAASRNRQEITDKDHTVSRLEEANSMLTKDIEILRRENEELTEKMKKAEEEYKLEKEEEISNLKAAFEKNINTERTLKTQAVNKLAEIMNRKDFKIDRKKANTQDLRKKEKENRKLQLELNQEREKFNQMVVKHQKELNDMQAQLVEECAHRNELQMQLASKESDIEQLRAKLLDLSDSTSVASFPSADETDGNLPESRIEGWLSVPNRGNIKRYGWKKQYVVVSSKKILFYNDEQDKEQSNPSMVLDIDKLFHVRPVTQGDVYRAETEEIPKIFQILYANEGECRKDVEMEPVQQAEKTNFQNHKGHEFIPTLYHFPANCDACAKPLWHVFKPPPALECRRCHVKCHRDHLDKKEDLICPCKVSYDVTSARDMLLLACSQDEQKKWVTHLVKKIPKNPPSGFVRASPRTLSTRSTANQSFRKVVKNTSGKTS
Sequence of JAK2 (O60674 whole entry): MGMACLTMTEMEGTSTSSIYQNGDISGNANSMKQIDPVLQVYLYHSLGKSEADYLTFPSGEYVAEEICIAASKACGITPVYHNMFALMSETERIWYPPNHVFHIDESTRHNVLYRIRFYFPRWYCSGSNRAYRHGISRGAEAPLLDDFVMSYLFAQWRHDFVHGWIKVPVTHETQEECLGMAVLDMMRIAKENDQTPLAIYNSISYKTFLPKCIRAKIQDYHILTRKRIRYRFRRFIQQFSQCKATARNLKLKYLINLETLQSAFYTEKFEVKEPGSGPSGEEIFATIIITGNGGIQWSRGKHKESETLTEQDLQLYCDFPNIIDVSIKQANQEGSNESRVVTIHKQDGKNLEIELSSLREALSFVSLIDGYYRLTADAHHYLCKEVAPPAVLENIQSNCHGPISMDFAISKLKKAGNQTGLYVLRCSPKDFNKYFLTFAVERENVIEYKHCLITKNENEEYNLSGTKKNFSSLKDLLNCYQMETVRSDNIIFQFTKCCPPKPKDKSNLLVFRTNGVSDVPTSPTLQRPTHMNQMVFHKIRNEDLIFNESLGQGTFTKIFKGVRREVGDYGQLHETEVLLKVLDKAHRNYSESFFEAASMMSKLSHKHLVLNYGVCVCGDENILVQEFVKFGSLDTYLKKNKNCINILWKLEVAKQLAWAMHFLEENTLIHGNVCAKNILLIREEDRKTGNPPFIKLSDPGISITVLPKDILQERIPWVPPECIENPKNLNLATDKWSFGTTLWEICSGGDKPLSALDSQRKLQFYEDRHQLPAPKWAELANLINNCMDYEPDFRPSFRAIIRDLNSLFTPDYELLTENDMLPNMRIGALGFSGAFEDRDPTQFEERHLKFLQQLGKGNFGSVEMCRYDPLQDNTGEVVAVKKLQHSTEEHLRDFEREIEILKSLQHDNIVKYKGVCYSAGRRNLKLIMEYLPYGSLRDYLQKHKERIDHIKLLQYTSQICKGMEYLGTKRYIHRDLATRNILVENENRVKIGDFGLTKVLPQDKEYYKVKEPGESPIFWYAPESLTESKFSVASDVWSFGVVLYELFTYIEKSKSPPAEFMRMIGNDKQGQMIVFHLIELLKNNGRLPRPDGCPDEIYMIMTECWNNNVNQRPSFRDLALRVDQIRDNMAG

As to `O=C(CCNc1nc(-c2ccnc3[nH]ccc23)nc2ccccc12)NCC(F)(F)F` [compound 197], the results for the Ki at JAK2 (setting [1]), at JAK3 (setting [1]) and on ROCK I (setting [1]) were 500 to 5000 nM, 500 to 5000 nM and more than 4000 nM, respectively.
For `c1cc(CNC2CC2)cc(-c2ccnc3[nH]ccc23)c1` [compound 86, Cyclopropyl-[3-(1H-pyrrolo[2,3-b]pyridin-4-yl)-benzyl]-amine], the Ki was 500 to 5000 nM on JAK2 (enzyme inhibition, Table 5); 500 to 5000 nM at JAK3 (enzyme inhibition, Table 5); less than 500 nM at ROCK I (setting [2]).
Take `Fc1ccc(-c2ccnc3[nH]ccc23)c(F)c1` [compound 207]: the Ki on JAK2 (setting [1]) is 500 to 5000 nM; on JAK3 (setting [1]), less than 500 nM; on ROCK I (setting [1]), 500 to 5000 nM.
`CCCN(CC1CC1)C(=O)c1cc(-c2c(Cl)cnc3[nH]ccc23)c[nH]1` [compound 334]: the figures for the Ki on JAK2 (setting [1]), at JAK3 (setting [1]) and on ROCK I (setting [1]) were less than 500 nM, less than 500 nM and 500 to 5000 nM, respectively.
Turning to `O=C(CC(F)(F)F)N1CC=C(c2ccnc3[nH]ccc23)CC1` [compound 65], the Ki on JAK2 (enzyme inhibition, Table 5) was less than 500 nM; at JAK3 (enzyme inhibition, Table 5), 500 to 5000 nM; on ROCK I (setting [2]) it was less than 500 nM.
With `C[C@@H]1CCC[C@H](C)N1C(=O)c1csc(-c2ccnc3[nH]ccc23)n1` [compound 421], the Ki at JAK2 (setting [1]), on JAK3 (setting [1]) and on ROCK I (setting [1]) was less than 500 nM in each case.
As to `c1ccc(COc2cccc(-c3ccnc4[nH]ccc34)c2)cc1` [compound 42, 4-(3-Benzyloxy-phenyl)-1H-pyrrolo[2,3-b]pyridine], the Ki is 500 to 5000 nM on JAK2 (enzyme inhibition, Table 5); less than 500 nM on JAK3 (enzyme inhibition, Table 5); less than 500 nM at ROCK I (setting [2]).
Take `Clc1ccccc1CNc1cccc(-c2ccnc3[nH]ccc23)n1` [compound 33, N-(2-Chlorobenzyl)-6-(1H-pyrrolo[2,3-b]pyridin-4-yl)pyridin-2-amine]: the Ki lay within 500 to 5000 nM at JAK2 (enzyme inhibition, Table 5); 500 to 5000 nM on JAK3 (enzyme inhibition, Table 5); 500 to 5000 nM on ROCK I (setting [2]).
Consider `CN(Cc1cccnc1)C(=O)c1cc(-c2ccnc3[nH]ccc23)c[nH]1` [compound 370], for which the Ki at JAK2 (setting [1]), on JAK3 (setting [1]) and on ROCK I (setting [1]) was less than 500 nM each time.
Take `CC(C)c1cccc(-c2ccnc3[nH]ccc23)n1` [compound 97, 4-(6-isopropylpyridin-2-yl)-1H-pyrrolo[2,3-b]pyridine]: the Ki at JAK2 (enzyme inhibition, Table 5) is less than 500 nM; at JAK3 (enzyme inhibition, Table 5), less than 500 nM; at ROCK I (setting [2]) it was less than 500 nM.
In the case of `COc1ccc(Cl)cc1-c1ccnc2[nH]ccc12` [compound 235], the Ki on JAK2 (setting [1]), on JAK3 (setting [1]) and on ROCK I (setting [1]) was 500 to 5000 nM throughout.
For the compound `COc1cccc(-c2ccnc3[nH]ccc23)c1OC` [compound 233], the Ki on JAK2 (setting [1]) was more than 5000 nM; at JAK3 (setting [1]), 500 to 5000 nM; on ROCK I (setting [1]) it was 500 to 5000 nM.
In the case of `CC(C)Oc1ccccc1-c1ccnc2[nH]ccc12` [compound 230], the Ki at JAK2 (setting [1]) is 500 to 5000 nM; on JAK3 (setting [1]) it was 500 to 5000 nM; on ROCK I (setting [1]) it was more than 4000 nM.
Consider `c1cc(NCC2COc3ccccc3O2)nc(-c2ccnc3[nH]ccc23)c1` (stereo not drawn) [compound 58, N-((2,3-Dihydrobenzo[b][1,4]dioxin-2-yl)methyl)-6-(1H-pyrrolo[2,3-b]pyridin-4-yl)pyridin-2-amine], for which the Ki lay in the range of 500 to 5000 nM on JAK2 (enzyme inhibition, Table 5); 500 to 5000 nM on JAK3 (enzyme inhibition, Table 5); 500 to 5000 nM at ROCK I (setting [2]).
Regarding `O=C(NCC1CC1)c1csc(-c2ccnc3[nH]ccc23)n1` [compound 412], the Ki on JAK2 (setting [1]) is less than 500 nM; on JAK3 (setting [1]) it was less than 500 nM; on ROCK I (setting [1]), 500 to 5000 nM.
For `Cc1cc(F)ccc1-c1ccnc2[nH]ccc12` [compound 243], the values for the Ki at JAK2 (setting [1]), on JAK3 (setting [1]) and on ROCK I (setting [1]) were more than 5000 nM, 500 to 5000 nM and 500 to 5000 nM, respectively.
As to `C[C@@H](Nc1ccnc(-c2ccnc3[nH]ccc23)n1)C(=O)NCC(F)(F)F` [compound 202], the figures for the Ki on JAK2 (setting [1]), on JAK3 (setting [1]) and at ROCK I (setting [1]) were 500 to 5000 nM, less than 500 nM and more than 4000 nM, respectively.
On to `CCOc1ccccc1-c1ccnc2[nH]ccc12` [compound 223], for which the Ki on JAK2 (setting [1]), on JAK3 (setting [1]) and on ROCK I (setting [1]) was 500 to 5000 nM in each case.
